Laboratory results published in US11178873B2, “Cyclic N-carboxamide compounds useful as herbicides” (FMC CORPORATION, priority 2015, dated 2021).

Assays:
Assay type in all cases: in vivo
[1] = system: foxtail, giant (giant foxtail, Setaria faberii); assay: Test A preemergence, foxtail, giant; settings: 0 to 100 scale, 0 no effect, 100 complete control
Outline: (§1)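 Preemergence treatment was a directed soil spray; postemergence plants were 2 to 10 cm tall at the one- to two-leaf stage. Compounds were formulated in solvent with surfactant and grown in loam/sand in the greenhouse. Injury was scored visually against untreated controls after ~10 d, on a 0 (no effect) to 100 (complete control) scale.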

[2] = system: foxtail, giant (giant foxtail, Setaria faberii); assay: Test A postemergence, foxtail, giant; settings: 0 to 100 scale, 0 no effect, 100 complete control
Outline: as §1

[3] = system: wheat (Triticum aestivum); assay: Test A preemergence, wheat; settings: 0 to 100 scale, 0 no effect, 100 complete control
Excerpt: (§2) Seeds of plant species selected from barnyardgrass (Echinochloa crus-galli), crabgrass, large (large crabgrass, Digitaria sanguinalis), kochia (Kochia scoparia), ragweed (common ragweed, Ambrosia elatior), morningglory (Ipomoea spp.), velvetleaf (Abutilon theophrasti), ryegrass, Italian (Italian ryegrass, Lolium multiflorum), foxtail, giant (giant foxtail, Setaria faberii), wheat (Triticum aestivum), corn (Zea mays), and pigweed (Amaranthus retroflexus), were planted into a blend of loam soil and sand and treated preemergence with a directed soil spray using test chemicals formulated in a non-phytotoxic solvent mixture which included a surfactant. At the same time, plants selected from these crop and weed species and also blackgrass (Alopecurus myosuroides), and galium (catchweed bedstraw, Galium aparine), were planted in pots containing the same blend of loam soil and sand and treated with postemergence applications of test chemicals formulated in the same manner. Plants ranged in height from 2 to 10 cm and were in the one- to two-leaf stage for the postemergence treatment. Treated plants and untreated controls were maintained in a greenhouse for approximately 10 d, after which time all treated plants were compared to untreated controls and visually evaluated for injury. Plant response ratings, summarized in Table A, are based on a 0 to 100 scale where 0 is no effect and 100 is complete control. A dash (-) response means no test result.

[4] = system: morningglory (Ipomoea spp.); assay: Test A preemergence, morningglory; settings: 0 to 100 scale, 0 no effect, 100 complete control
Excerpt: as §2

[5] = system: crabgrass, large (large crabgrass, Digitaria sanguinalis); assay: Test A preemergence, crabgrass, large; settings: 0 to 100 scale, 0 no effect, 100 complete control
Excerpt: as §2

[6] = system: barnyardgrass (Echinochloa crus-galli); assay: Test B flooded paddy test, barnyardgrass; settings: Flood, 250 g ai/ha; scale 0 to 100 (0 no effect, 100 complete control); 13 to 15 d
Outline: (§3)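 Ratings use a 0-100 visual scale, where 100 is complete control, and compare treated plants with controls after 13 to 15 d of greenhouse growth. Compound went straight into paddy water kept 3 cm over the soil surface, applied to seedlings at the 2-leaf stage.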

[7] = system: barnyardgrass (Echinochloa crus-galli); assay: Test A preemergence, barnyardgrass; settings: 0 to 100 scale, 0 no effect, 100 complete control
Outline: as §1

[8] = system: barnyardgrass (Echinochloa crus-galli); assay: Test A postemergence, barnyardgrass; settings: 0 to 100 scale, 0 no effect, 100 complete control
Outline: as §1

[9] = system: sedge, umbrella (small-flower umbrella sedge, Cyperus difformis); assay: Test B flooded paddy test, sedge, umbrella; settings: Flood, 250 g ai/ha; scale 0 to 100 (0 no effect, 100 complete control); 13 to 15 d
Outline: as §3

corn (Zea mays) [10] = assay: Test A postemergence, corn; settings: 0 to 100 scale, 0 no effect, 100 complete control
Outline: as §1

[11] = system: velvetleaf (Abutilon theophrasti); assay: Test A postemergence, velvetleaf; settings: 0 to 100 scale, 0 no effect, 100 complete control
Excerpt: as §2

[12] = system: pigweed (Amaranthus retroflexus); assay: Test A preemergence, pigweed; settings: 0 to 100 scale, 0 no effect, 100 complete control
Outline: as §1

[13] = system: wheat (Triticum aestivum); assay: Test A postemergence, wheat; settings: 0 to 100 scale, 0 no effect, 100 complete control
Outline: as §1

[14] = system: crabgrass, large (large crabgrass, Digitaria sanguinalis); assay: Test A postemergence, crabgrass, large; settings: 0 to 100 scale, 0 no effect, 100 complete control
Excerpt: as §2

rice (Oryza sativa) = assay: Test B flooded paddy test, rice; settings: Flood, 250 g ai/ha; scale 0 to 100 (0 no effect, 100 complete control); 13 to 15 d
Outline: as §3

[15] = system: morningglory (Ipomoea spp.); assay: Test A postemergence, morningglory; settings: 0 to 100 scale, 0 no effect, 100 complete control
Excerpt: as §2

[16] = system: pigweed (Amaranthus retroflexus); assay: Test A postemergence, pigweed; settings: 0 to 100 scale, 0 no effect, 100 complete control
Outline: as §1

[17] = system: ducksalad (Heteranthera limosa); assay: Test B flooded paddy test, ducksalad; settings: Flood, 250 g ai/ha; scale 0 to 100 (0 no effect, 100 complete control); 13 to 15 d
Outline: as §3

corn (Zea mays) [18] = assay: Test A preemergence, corn; settings: 0 to 100 scale, 0 no effect, 100 complete control
Excerpt: as §2

[19] = system: velvetleaf (Abutilon theophrasti); assay: Test A preemergence, velvetleaf; settings: 0 to 100 scale, 0 no effect, 100 complete control
Excerpt: as §2

Row | SMILES | Plant response rating, Foxtail, Giant ([1]; 125 g ai/ha) | Plant response rating, Foxtail, Giant ([1]; 500 g ai/ha) | Plant response rating, Foxtail, Giant ([2]; 125 g ai/ha) | Plant response rating, Foxtail, Giant ([2]; 500 g ai/ha) | Plant response rating, Wheat ([3]; 125 g ai/ha) | Plant response rating, Wheat ([3]; 500 g ai/ha) | Plant response rating, Morningglory ([4]; 125 g ai/ha) | Plant response rating, Morningglory ([4]; 500 g ai/ha) | Plant response rating, Crabgrass, Large ([5]; 125 g ai/ha) | Plant response rating, Crabgrass, Large ([5]; 500 g ai/ha) | Plant response rating, Barnyardgrass [6] | Plant response rating, Barnyardgrass ([7]; 125 g ai/ha) | Plant response rating, Barnyardgrass ([7]; 500 g ai/ha) | Plant response rating, Barnyardgrass ([8]; 125 g ai/ha) | Plant response rating, Barnyardgrass ([8]; 500 g ai/ha) | Plant response rating, Sedge, Umbrella [9] | Plant response rating, Corn (corn (Zea mays) [10]; 125 g ai/ha) | Plant response rating, Corn (corn (Zea mays) [10]; 500 g ai/ha) | Plant response rating, Velvetleaf ([11]; 125 g ai/ha) | Plant response rating, Velvetleaf ([11]; 500 g ai/ha) | further results
1 | O=C(Nc1ccccc1Cl)N1C(=O)OCC1c1ccc(F)c(F)c1 (stereo not drawn) [Compound 2] | 0 | 30 | 0 | 0 | 0 | 0 | 0 | 0 | 40 | 80 | 0 | 0 | 0 | 0 | 0 | 0 | 0 | 0 | 0 | 0 | Plant response rating, Pigweed ([12]; 125 g ai/ha): 0; Plant response rating, Pigweed ([12]; 500 g ai/ha): 0; Plant response rating, Wheat ([13]; 125 g ai/ha): 0; Plant response rating, Wheat ([13]; 500 g ai/ha): 0; Plant response rating, Crabgrass, Large ([14]; 125 g ai/ha): 0; Plant response rating, Crabgrass, Large ([14]; 500 g ai/ha): 0; Plant response rating, Rice (rice (Oryza sativa)): 0; Plant response rating, Morningglory ([15]; 125 g ai/ha): 0; Plant response rating, Morningglory ([15]; 500 g ai/ha): 0; Plant response rating, Pigweed ([16]; 125 g ai/ha): 0; Plant response rating, Pigweed ([16]; 500 g ai/ha): 0; Plant response rating, Ducksalad [17]: 0; Plant response rating, Corn (corn (Zea mays) [18]; 125 g ai/ha): 0; Plant response rating, Corn (corn (Zea mays) [18]; 500 g ai/ha): 0; Plant response rating, Velvetleaf ([19]; 125 g ai/ha): 0; Plant response rating, Velvetleaf ([19]; 500 g ai/ha): 0
2 | O=C(Nc1ccccc1F)N1C(=O)OCC1c1ccc(Cl)cc1 (stereo not drawn) [Compound 4] | 0 | 0 | 0 | 0 | 0 | 0 | 0 | 0 | 0 | 20 | 0 | 0 | 0 | 0 | 0 | 0 | 0 | 0 | 0 | 0 | Plant response rating, Pigweed ([12]; 125 g ai/ha): 0; Plant response rating, Pigweed ([12]; 500 g ai/ha): 0; Plant response rating, Wheat ([13]; 125 g ai/ha): 0; Plant response rating, Wheat ([13]; 500 g ai/ha): 0; Plant response rating, Crabgrass, Large ([14]; 125 g ai/ha): 0; Plant response rating, Crabgrass, Large ([14]; 500 g ai/ha): 0; Plant response rating, Rice (rice (Oryza sativa)): 0; Plant response rating, Morningglory ([15]; 125 g ai/ha): 0; Plant response rating, Morningglory ([15]; 500 g ai/ha): 0; Plant response rating, Pigweed ([16]; 125 g ai/ha): 0; Plant response rating, Pigweed ([16]; 500 g ai/ha): 0; Plant response rating, Ducksalad [17]: 0; Plant response rating, Corn (corn (Zea mays) [18]; 125 g ai/ha): 0; Plant response rating, Corn (corn (Zea mays) [18]; 500 g ai/ha): 0; Plant response rating, Velvetleaf ([19]; 125 g ai/ha): 0; Plant response rating, Velvetleaf ([19]; 500 g ai/ha): 0
